Legend:
human TGR5 receptor = molecular target: T1, human TGR5 receptor (Homo sapiens, UniProt Q8TDU6); test: Human TGR5 cAMP production assay; format: cell-based; conditions: human TGR5, luminescent cAMP assay; coded A-D; read-out: Human TGR5 Lum. cAMP Activity (EC50)
T1 construct: host or cells: CHO-K1 (hTGR5-CHO cells)
T1 sequence (Q8TDU6 1-330): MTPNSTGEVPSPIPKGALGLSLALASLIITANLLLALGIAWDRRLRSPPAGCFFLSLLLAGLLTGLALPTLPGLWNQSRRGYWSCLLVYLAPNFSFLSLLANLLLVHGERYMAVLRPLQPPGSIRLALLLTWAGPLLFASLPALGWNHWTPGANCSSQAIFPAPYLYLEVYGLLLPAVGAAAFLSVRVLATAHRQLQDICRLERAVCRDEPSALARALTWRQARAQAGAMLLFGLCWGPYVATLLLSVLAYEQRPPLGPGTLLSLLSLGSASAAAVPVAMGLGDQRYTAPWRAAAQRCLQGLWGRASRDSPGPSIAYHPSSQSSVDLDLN
Protocol: Human TGR5 cAMP Production Assay
We evaluated the Compounds of the present invention for their ability to induce cAMP production using CHO-K1 cells overexpressing the human TGR5 receptor. CHO-K1 cells stably expressing human TGR5 receptor (accession number NM_001077194.1 (hTGR5) (i.e., hTGR5-CHO cells) were purchased from DiscoveRx Corporation (Fremont, Calif.). hTGR5-CHO cells were grown in Ham's F-12 media supplemented with 10% Fetal Bovine Serum, 1% Penicillin-Streptomycin, 2 mM L-Alanine L-Glutamine (Glutamax), and 800 μg/mL Geneticin selection. The cAMP production assay was performed using DiscoveRx's cAMP XS+ kit (Catalog No. 90-0075XL) following the manufacturer's recommended protocol. Briefly, hTGR5-CHO cells were harvested using non-enzymatic cell dissociation buffer (Sigma-Aldrich, St. Louis, Mo.) and 1×10^6 cells were combined in Phosphate-Buffered Saline (PBS) to a final volume of 496 μL to which 4 μL of 125 mM IBMX (Sigma-Aldrich, St. Louis, Mo.) was added. 500 μL of cAMP antibody solution was added to the harvested cells and incubated at room temperature for 20 min.
Test compounds were serially diluted (half-log dilutions) in DMSO and then further diluted 1:50 in PBS, 10 mM HEPES buffer. 2 μL of serially diluted compound was added to a 384-well low volume plate (Greiner; cat #784075) and centrifuged briefly. 2 μL of the cell/cAMP antibody mixture was then added to each compound-containing well and allowed to incubate at room temperature for one hour. Following incubation, the XS+ kits' ED/Lysis/CL Substrate Working Solution was prepared following the manufacturer's recommended protocol and 4 μL was added to each well of the plate. The plate was then incubated for one hour at room temperature. Following incubation, 4 μL of Enzyme Acceptor reagent was added to the plate and allowed to incubate overnight at room temperature. Luminescent signal was then detected using the Viewlux instrument (Perkin-Elmer, Waltham, Mass.).
(§1) In Table 33, EC50 values for both human and mouse cells were determined according to the TGR5 cAMP assays described above.

mouse TGR5 receptor = molecular target: T2, mouse TGR5 receptor (Mus musculus, UniProt Q80SS6); test: Mouse TGR5 cAMP production assay (HTRF, Cisbio cAMP HiRange); format: cell-based; conditions: HEK293-EBNA cells overexpressing mouse TGR5, HTRF cAMP HiRange; coded A-D
T2 construct: expressed in transfected cells; host or cells: HEK293-EBNA (293 c18, ATCC CRL10852), Hygromycin B selection
T2 sequence (Q80SS6 1-329): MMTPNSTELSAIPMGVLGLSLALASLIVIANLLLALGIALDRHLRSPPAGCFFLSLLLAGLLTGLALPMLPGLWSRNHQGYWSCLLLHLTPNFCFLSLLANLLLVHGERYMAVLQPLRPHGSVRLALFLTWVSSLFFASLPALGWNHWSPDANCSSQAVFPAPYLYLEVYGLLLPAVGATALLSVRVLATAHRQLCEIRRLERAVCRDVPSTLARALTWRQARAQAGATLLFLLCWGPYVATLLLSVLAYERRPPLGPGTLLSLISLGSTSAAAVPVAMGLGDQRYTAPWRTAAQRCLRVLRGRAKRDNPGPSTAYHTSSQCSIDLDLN
Description: Mouse TGR5 cAMP Production Assay
We evaluated compounds of the present invention for their ability to induce cAMP production in HEK-EBNA cells overexpressing the mouse TGR5 receptor. Human embryonic kidney cells (HEK293-EBNA) stably expressing mouse TGR5 receptor were established using the following procedure. Specifically, a commercially-obtained gene encoding mouse TGR5 (accession number BC116914) from Thermo Scientific (Waltham, Mass.) was cloned into an episomal expression vector. The resulting expression plasmid was then transfected into 293 c18 (ATCC® CRL10852™) cells, which express the Epstein-Barr virus nuclear antigen EBNA1 and can support the replication of episomal vectors. Selection for the plasmid was maintained with Hygromycin B. Cells were cultured and maintained in DMEM (Sigma; cat #6429) supplemented with 10% Fetal Bovine Serum, 1% penicillin/streptomycin, 2 mM L-alanine L-glutamine (GlutaMax), and 250 μg/mL Hygromycin.
2. HTRF cAMP Production Assay
In this second cAMP production assay, the cAMP production was measured in 384-well low volume plates (Greiner; cat #784075) using the Cisbio™ cAMP HiRange HTRF Assay Kit (Cisbio) according to the manufacturer's protocol.
Briefly, compounds were initially diluted in 100% DMSO (12-point serial dilution by half logs) in a 96-well plate and then were further diluted 1:50 in PBS containing 10 mM HEPES. 5 μL were transferred to the 384-well assay plate in duplicate. HEK293-EBNA cells stably overexpressing mouse TGR5 were harvested using non-enzymatic cell dissociation buffer (Sigma), spun down, then resuspended in serum-free DMEM with 500 μM IBMX at a density of 500,000 cells/mL. 5 μL of cell suspension was transferred to each well of the 384-well assay plate already containing compound. The plate was covered and incubated at room temperature for 1 hour. The d2-cAMP and anti-cAMP Ab-cryptate stock solutions were prepared as per kit instructions. Then 5 μL of each conjugate (d2 and cryptate) were added to each well of the assay plate. The plate was covered and incubated at room temperature for 1 hour. The plate was read on an Envision™ plate reader (Perkin Elmer).
as §1

Row | Compound | EC50 (human TGR5 receptor) [µM] | EC50 (mouse TGR5 receptor) [µM]
1 | Cc1cnccc1-c1cccc(C(C)(C)NS(=O)(=O)c2cc(Br)ccc2C)c1 [Compound 2BW] | < 0.1 | 0.1 to 0.999
2 | Cc1cnccc1-c1cccc(C(C)(C)NS(=O)(=O)c2ccccc2C)c1 [Compound 2BX] | < 0.1 | < 0.1
3 | CCc1cnccc1-c1cccc(C(C)(C)NS(=O)(=O)c2cccc(Cl)c2C)c1 [Compound 2BY] | < 0.1 | < 0.1
4 | Cc1cnccc1-c1cccc([C@H](CCCC#N)NS(=O)(=O)c2cccc(Cl)c2C)c1 [Compound 2BZ] | < 0.1 | < 0.1
5 | CCc1cnccc1-c1cc(OC)cc(C(C)(C)NS(=O)(=O)c2ccccc2C(F)(F)F)c1 [Compound 2CD] | 0.1 to 0.999 | 0.1 to 0.999
6 | CC(C)(NS(=O)(=O)c1ccccc1C(F)(F)F)c1cccc(-c2ccc(=O)[nH]c2)c1 [Compound 3, N-(2-(3-(6-oxo-1,6-dihydropyridin-3-yl)phenyl)propan-2-yl)-2-(trifluoromethyl)benzenesulfonamide] | 0.1 to 0.999 | 1 to 30
7 | Cc1c(Cl)cccc1S(=O)(=O)N[C@@H](C)c1cccc(-c2ccnn2C)c1 [Compound 4, (S)-3-Chloro-2-methyl-N-(1-(3-(1-methyl-1H-pyrazol-5-yl)phenyl)ethyl)benzenesulfonamide] | 0.1 to 0.999 | 1 to 30
8 | Cc1nccc(-c2cccc(C(C)(C)NS(=O)(=O)c3cccc(C(F)(F)F)c3)c2)c1C [Compound 5AC, N-(2-(3-(2,3-dimethylpyridin-4-yl)phenyl)propan-2-yl)-3-(trifluoromethyl)-benzenesulfonamide] | 1 to 30 | 1 to 30
9 | CC(C)(NS(=O)(=O)c1cccc(C(F)(F)F)c1)c1cccc(-c2ccncc2CO)c1 [Compound 5AE, N-(2-(3-(3-(hydroxymethyl)-pyridin-4-yl)phenyl)propan-2-yl)-3-(trifluoromethyl)benzenesulfonamide] | < 0.1 | 1 to 30

The next lines start with the values.

Row | EC50 (human TGR5 receptor) [µM] | EC50 (mouse TGR5 receptor) [µM] | Compound
10 | 0.1 to 0.999 | 1 to 30 | CC(C)(NS(=O)(=O)c1cccc(C(F)(F)F)c1)c1cccc(-c2ccc3nccn3c2)c1 [Compound 5AF, N-(2-(3-(imidazo[1,2-a]pyridin-6-yl)phenyl)propan-2-yl)-3-(trifluoromethyl)benzenesulfonamide]
11 | 0.1 to 0.999 | 1 to 30 | CC(C)(NS(=O)(=O)c1ccccc1C(F)(F)F)c1cccc(-c2ccc3nccn3c2)c1 [Compound 5AJ, N-(2-(3-(imidazo[1,2-a]pyridin-6-yl)phenyl)propan-2-yl)-2-(trifluoromethyl)benzenesulfonamide]
12 | 0.1 to 0.999 | 1 to 30 | Cc1cc2nccn2cc1-c1cccc(C(C)(C)NS(=O)(=O)c2ccccc2C(F)(F)F)c1 [Compound 5AK, N-(2-(3-(7-methylimidazo[1,2-a]pyridin-6-yl)phenyl)propan-2-yl)-2-(trifluoromethyl)benzenesulfonamide]
13 | 1 to 30 | > 30 | CC(C)(NS(=O)(=O)c1ccccc1C(F)(F)F)c1cccc(-c2ccc3[nH]cnc3c2)c1 [Compound 5AL, N-(2-(3-(1H-benzo[d]imidazol-5-yl)phenyl)propan-2-yl)-2-(trifluoromethyl)benzenesulfonamide]
14 | 1 to 30 | 1 to 30 | CC(C)(NS(=O)(=O)c1ccccc1C(F)(F)F)c1cccc(-c2cnc3nccn3c2)c1 [Compound 5AM, N-(2-(3-(imidazo [1,2-a]pyrimidin-6-yl)phenyl)propan-2-yl)-2-(trifluoromethyl)benzenesulfonamide]
15 | < 0.1 | 0.1 to 0.999 | CC(C)(NS(=O)(=O)c1ccccc1C(F)(F)F)c1cccc(-c2ccncc2CO)c1 [Compound 5AN, N-(2-(3-(3-(hydroxymethyl)pyridin-4-yl)phenyl)propan-2-yl)-2-(trifluoromethyl)benzenesulfonamide]
16 | < 0.1 | < 0.1 | CCc1cnccc1-c1cccc(C(C)(C)NS(=O)(=O)c2ccccc2[N+](=O)[O-])c1 [Compound 5AO, N-(2-(3-(3-ethylpyridin-4-yl)phenyl)propan-2-yl)-2-nitrobenzenesulfonamide]
17 | < 0.1 | 0.1 to 0.999 | Cc1cnccc1-c1cccc(C(C)(C)NS(=O)(=O)c2ccccc2[N+](=O)[O-])c1 [Compound 5AP, N-(2-(3-(3-methylpyridin-4-yl)phenyl)propan-2-yl)-2-nitrobenzenesulfonamide]
18 | < 0.1 | < 0.1 | CCc1cnccc1-c1cccc([C@H](C)NS(=O)(=O)c2ccccc2C(F)(F)F)c1 [Compound 5AQ, (S)-N-(1-(3-(3-ethylpyridin-4-yl)phenyl)ethyl)-2-(trifluoromethyl)benzenesulfonamide]
19 | < 0.1 | 0.1 to 0.999 | Cc1cnccc1-c1cccc([C@H](C)NS(=O)(=O)c2ccccc2C(F)(F)F)c1 [Compound 5AR, (S)-N-(1-(3-(3-methylpyridin-4-yl)phenyl)ethyl)-2-(trifluoromethyl)benzenesulfonamide]
20 | < 0.1 | 0.1 to 0.999 | CCc1cnccc1-c1cccc([C@@H](C)NS(=O)(=O)c2ccccc2C(F)(F)F)c1 [Compound 5AS, (R)-N-(1-(3-(3-ethylpyridin-4-yl)phenyl)ethyl)-2-(trifluoromethyl)benzenesulfonamide]
21 | < 0.1 | 0.1 to 0.999 | Cc1cnccc1-c1cccc([C@@H](C)NS(=O)(=O)c2ccccc2C(F)(F)F)c1 [Compound 5AT, (R)-N-(1-(3-(3-methylpyridin-4-yl)phenyl)ethyl)-2-(trifluoromethyl)benzenesulfonamide]
22 | 1 to 30 | 1 to 30 | CC[C@H](NS(=O)(=O)c1ccccc1C(F)(F)F)c1cccc(-c2ccc3nccn3c2)c1 [Compound 5AX, (S)-N-(1-(3-(imidazo[1,2-a]pyridin-6-yl)phenyl)propyl)-2-(trifluoromethyl)benzenesulfonamide]
23 | < 0.1 | 0.1 to 0.999 | CC[C@H](NS(=O)(=O)c1cccc(C(F)(F)F)c1)c1cccc(-c2ccncc2C)c1 [Compound 5AY, (S)-N-(1-(3-(3-methylpyridin-4-yl)phenyl)propyl)-3-(trifluoromethyl)benzenesulfonamide]

From patent US11236055B2 (Venenum Biodesign, LLC, priority 2016, dated 2022)
